# Read-outs that look alike come from different tables or passages of the source.
# Tests used:
# ENPP-1 ECD [1] = target: T1, ENPP-1 ECD (Homo sapiens (Human), UniProt P22413); assay: Assay 1: inhibition of ENPP1 hydrolysis of 2′,3′-cGAMP (AMP-Glo, […] enzyme)
# Description: Assay 1: Test compounds were plated in a 3× dilution scheme in a 384 well plate. […] AMP Detection solution (100 μL) was added to each well, the plate centrifuged and incubated for 60 min.
# ENPP-1 ECD [2] = target: T1, ENPP-1 ECD; assay: Assay 2: inhibition of ENPP1 hydrolysis of 2′,3′-cGAMP (AMP-Glo, […] enzyme)
# Description: Assay 2: Compared to the conditions in Assay 1, this assay has a larger dynamic range and ensures the system is under steady-state conditions by reducing the enzyme concentration in the assay.
# Test compounds were plated in a 3× dilution scheme in a 384 well plate. […] AMP Detection solution (10 μL) was added to each well, the plate centrifuged and incubated for 60 min.
# [3] = Assay 1 (IC50), ENPP1 hydrolysis of 2′,3′-cGAMP, AMP-Glo
# [4] = Assay 1 (IC50), inhibition of ENPP1 hydrolysis of 2′,3′-cGAMP, no unit in Table 18 (Table 17 legend for this assay uses nM)
# [5] = read-out: Assay 1 (IC50), ENPP1 hydrolysis of 2′,3′-cGAMP, AMP-Glo
# [6] = read-out: Assay 2 (KI), inhibition of ENPP1 hydrolysis of 2′,3′-cGAMP, no unit in Table 18 (Table 17 legend for this assay uses nM)
# [7] = read-out: Assay 2 (KI), ENPP1 hydrolysis of 2′,3′-cGAMP, AMP-Glo, […] ENPP-1, 24 μM cGAMP
# [8] = Assay 2 (KI), inhibition of ENPP1 hydrolysis of 2′,3′-cGAMP, no unit in Table 18 (Table 17 legend for this assay uses nM)
# [9] = Assay 2 (KI), ENPP1 hydrolysis of 2′,3′-cGAMP, AMP-Glo, […] ENPP-1, 24 μM cGAMP
# T1 sequence (P22413 98-925): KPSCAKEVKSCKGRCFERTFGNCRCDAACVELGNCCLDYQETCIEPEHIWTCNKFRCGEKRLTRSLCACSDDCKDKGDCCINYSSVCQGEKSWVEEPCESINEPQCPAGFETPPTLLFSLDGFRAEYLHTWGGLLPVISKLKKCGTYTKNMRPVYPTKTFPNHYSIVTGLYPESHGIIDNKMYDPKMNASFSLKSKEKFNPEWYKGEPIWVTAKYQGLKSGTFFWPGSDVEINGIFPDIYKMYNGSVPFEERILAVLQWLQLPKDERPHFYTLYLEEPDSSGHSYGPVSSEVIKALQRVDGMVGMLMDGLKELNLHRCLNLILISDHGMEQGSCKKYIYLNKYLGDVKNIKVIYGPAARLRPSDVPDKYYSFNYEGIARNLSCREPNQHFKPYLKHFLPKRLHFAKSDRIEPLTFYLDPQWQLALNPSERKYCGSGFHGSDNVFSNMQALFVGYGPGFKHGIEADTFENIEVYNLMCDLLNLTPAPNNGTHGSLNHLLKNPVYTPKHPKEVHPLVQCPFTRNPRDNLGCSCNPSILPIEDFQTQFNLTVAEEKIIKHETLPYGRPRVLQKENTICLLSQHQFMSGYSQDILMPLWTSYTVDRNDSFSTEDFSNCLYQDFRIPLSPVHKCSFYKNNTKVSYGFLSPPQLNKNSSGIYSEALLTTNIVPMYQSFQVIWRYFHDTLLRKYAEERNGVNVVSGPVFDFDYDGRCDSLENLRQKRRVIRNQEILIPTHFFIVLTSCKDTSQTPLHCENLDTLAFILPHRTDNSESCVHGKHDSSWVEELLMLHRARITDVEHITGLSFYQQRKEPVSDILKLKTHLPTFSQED
SMILES,Ki (ENPP-1 ECD [2]; [6]),Ki (ENPP-1 ECD [2]; [8]),further results
"COc1ccc2c(Oc3ccc(S(C)(=N)=O)cc3)ccnc2c1F (stereo not shown) [Compound 128, {4-[(8-fluoro-7-methoxyquinolin-4-yl)oxy]phenyl}(imino)methyl-λ^6-sulfanone]",–,–,IC50 (ENPP-1 ECD [1]; [3]): 10 to 1000 nM; IC50 (ENPP-1 ECD [1]; [4]): 310 nM
"CS(=N)(=O)Cc1ccc(-c2ccnc3ccccc23)cc1 (stereo not shown) [Compound 155, imino(methyl){[4-(quinolin-4-yl)phenyl]methyl}-λ^6-sulfanone]",–,–,IC50 (ENPP-1 ECD [1]; [4]): 14000 nM; IC50 (ENPP-1 ECD [1]; [5]): > 1000 nM
"COc1ccc2ncc(C#N)c(Oc3ccc(S(C)(=N)=O)cc3)c2c1 (stereo not shown) [Compound 47, 6-methoxy-4-(4-(S-methylsulfonimidoyl)phenoxy)quinoline-3-carbonitrile]",–,–,IC50 (ENPP-1 ECD [1]; [3]): 10 to 1000 nM; IC50 (ENPP-1 ECD [1]; [4]): 180 nM
"COc1ccc2c(CC(=O)N3CCS(=N)(=O)CC3)ccnc2c1 [Compound 26, 1-imino-4-[2-(7-methoxyquinolin-4-yl)acetyl]-1λ^6-thiomorpholin-1-one]",–,–,IC50 (ENPP-1 ECD [1]; [4]): 8800 nM; IC50 (ENPP-1 ECD [1]; [5]): > 1000 nM
"COc1cccc2c(OCc3ccc(S(C)(=N)=O)cc3)ccnc12 (stereo not shown) [Compound 134, imino(4-{[(8-methoxyquinolin-4-yl)oxy]methyl}phenyl)methyl-λ^6-sulfanone]",–,–,IC50 (ENPP-1 ECD [1]; [4]): 1100 nM
"COc1ccc2c(C(=O)N3CCS(=N)(=O)CC3)ccnc2c1 [Compound 6, 1-imino-4-(7-methoxyquinoline-4-carbonyl)-1λ^6-thiomorpholin-1-one]",–,–,IC50 (ENPP-1 ECD [1]; [4]): > 30000 nM; IC50 (ENPP-1 ECD [1]; [5]): > 1000 nM
"Cc1ccc2ncc(C#N)c(Oc3ccc(S(C)(=N)=O)cc3)c2c1 (stereo not shown) [Compound 50, 6-methyl-4-(4-(S-methylsulfonimidoyl)phenoxy)quinoline-3-carbonitrile]",–,–,IC50 (ENPP-1 ECD [1]; [4]): 2600 nM; IC50 (ENPP-1 ECD [1]; [5]): > 1000 nM
COc1ccc2c(OCc3cc(F)cc([S@@](C)(=N)=O)c3)ccnc2c1 [Compound 177a],20 nM,–,–
COc1ccc2c(-c3ccc4c(c3)CN([S@@](C)(=N)=O)CC4)ccnc2c1 [Compound 52b],3.5 nM,–,Ki (ENPP-1 ECD [2]; [7]): 3 to 300 nM
"COc1ccc2c(-c3ccc4c(c3)CN(S(C)(=N)=O)CC4)ccnc2n1 (stereo not shown) [Compound 163, imino[7-(7-methoxy-1,8-naphthyridin-4-yl)-1,2,3,4-tetrahydroisoquinolin-2-yl]methyl-λ^6-sulfanone]",–,21 nM,Ki (ENPP-1 ECD [2]; [9]): 3 to 300 nM
COc1cc2nccc(-c3ccc4c(c3)CN([S@](C)(=N)=O)CC4)c2cc1OC [Compound 161b],0.64 nM,–,Ki (ENPP-1 ECD [2]; [7]): < 3 nM
COc1ccc2c(-c3ccc4c(c3)CN([S@](C)(=N)=O)CC4)ccnc2c1 [Compound 52a],110 nM,–,Ki (ENPP-1 ECD [2]; [7]): 3 to 300 nM
COc1cc2ncnc(-c3ccc4c(c3)CN([S@@](C)(=N)=O)CC4)c2cc1OC [Compound 37a],21 nM,–,Ki (ENPP-1 ECD [2]; [7]): 3 to 300 nM
"COc1ccc2c(Oc3ccc(S(C)(=N)=O)cc3)ccnc2n1 (stereo not shown) [Compound 78, imino(4-((7-methoxy-1,8-naphthyridin-4-yl)oxy)phenyl)(methyl)-λ^6-sulfanone]",–,150 nM,Ki (ENPP-1 ECD [2]; [9]): 3 to 300 nM
COc1cc2nccc(OCc3cccc([S@@](C)(=N)=O)c3)c2cc1OC [Compound 175b],4.1 nM,–,–
"COc1cc2ncnc(N3CCC4(CC3)CCN(S(C)(=N)=O)CC4)c2cc1OC (stereo not shown) [Compound 209, [9-(6,7-dimethoxyquinazolin-4-yl)-3,9-diazaspiro[5.5]undecan-3-yl](imino)methyl-λ^6-sulfanone]",–,17 nM,–
COc1ccc2c(O[C@H](C)c3cccc([S@](C)(=N)=O)c3)ccnc2c1 [Compound 178b],34 nM,–,–

# Now from value to molecule, other results behind:
Ki (ENPP-1 ECD [2]; [6]),Ki (ENPP-1 ECD [2]; [8]),SMILES,further results
0.052 nM,–,CC[S@@](=N)(=O)CC1(O)CCN(c2ncnc3c(OC)cccc23)CC1 [Compound 195a],–
–,3.1 nM,"COc1cccc2c(N3CCC(CS(C)(=N)=O)CC3)cnnc12 (stereo not shown) [Compound 182, imino({[1-(8-methoxycinnolin-4-yl)piperidin-4-yl]methyl})methyl-λ^6-sulfanone]",–
–,1.7 nM,"COc1ccc(F)c2c(N3CCC(CS(C)(=N)=O)CC3)c(C#N)cnc12 (stereo not shown) [Compound 203, 5-fluoro-4-(4-{[imino(methyl)oxo-λ^6-sulfanyl]methyl}piperidin-1-yl)-8-methoxyquinoline-3-carbonitrile]",–
–,5.2 nM,"COc1cc(F)cc2c(N3CCC(CS(C)(=N)=O)CC3)ncnc12 (stereo not shown) [Compound 183, {[1-(6-fluoro-8-methoxyquinazolin-4-yl)piperidin-4-yl]methyl}(imino)methyl-λ^6-sulfanone]",–
13 nM,–,COc1cccc2c(N3CC[C@H](C[S@](C)(=N)=O)C3)ncnc12 [Compound 238b],–
–,2.7 nM,"COc1cc2nccc(N3CCC(CNS(C)(=N)=O)CC3)c2cc1Cl (stereo not shown) [Compound 157, N-{[1-(6-chloro-7-methoxyquinolin-4-yl)piperidin-4-yl]methyl}methanesulfonoimidamide]",Ki (ENPP-1 ECD [2]; [9]): < 3 nM
–,56 nM,"COc1ccc2c(N3CCC(CS(C)(=N)=O)CC3)ccnc2c1 (stereo not shown) [Compound 148, imino({[1-(7-methoxyquinolin-4-yl)piperidin-4-yl]methyl})methyl-λ^6-sulfanone]",Ki (ENPP-1 ECD [2]; [9]): 3 to 300 nM
5 nM,–,COc1cc2nccc(N3CCC4(CC3)CCN([S@](C)(=N)=O)C4)c2cc1F [Compound 205a],–
39 nM,–,COc1cc2nccc(OC[C@@H]3CCN([S@@](C)(=N)=O)C3)c2cc1F [Compound 229a],–
8.8 nM,–,COc1cccc2c(N3CCC(C[S@@](=N)(=O)C4CC4)CC3)c(C#N)cnc12 [Compound 189a],–
–,0.2 nM,"CCS(=N)(=O)CC1(O)CCN(c2ncnc3c(OC)cccc23)CC1 (stereo not shown) [Compound 195, ethyl({[4-hydroxy-1-(8-methoxyquinazolin-4-yl)piperidin-4-yl]methyl})imino-λ^6-sulfanone]",–
2.4 nM,–,COc1cc2ncnc(N3CC4(CC(C[S@@](C)(=N)=O)C4)C3)c2cc1OC [Compound 237a],–
–,16 nM,"COc1cccc2c(N3CCC(CS(C)(=N)=O)CC3)ccnc12 (stereo not shown) [Compound 180, imino({[1-(8-methoxyquinolin-4-yl)piperidin-4-yl]methyl})methyl-λ^6-sulfanone]",–
–,3.8 nM,"COc1cccc2c(N3CCC4(CC3)CCN(S(C)(=N)=O)C4)ncnc12 (stereo not shown) [Compound 215, imino[8-(8-methoxyquinazolin-4-yl)-2,8-diazaspiro[4.5]decan-2-yl]methyl-λ^6-sulfanone]",–
83 nM,–,COc1cccc2c(N3CC[C@@H](C[S@@](C)(=N)=O)C3)ncnc12 [Compound 239b],–
–,110 nM,"COc1cccc2c(N3CCC4(CC3)CCN4S(C)(=N)=O)ncnc12 (stereo not shown) [Compound 214, imino[7-(8-methoxyquinazolin-4-yl)-1,7-diazaspiro[3.5]nonan-1-yl]methyl-λ^6-sulfanone]",–
9 nM,–,COc1cc2ncnc(N3CCC(CN[S@](C)(=N)=O)CC3)c2cc1OC [Compound 94b],Ki (ENPP-1 ECD [2]; [7]): 3 to 300 nM
–,370 nM,"COc1cccc2c(N3CCC(CS(C)(=N)=O)CC3)c(F)cnc12 (stereo not shown) [Compound 202, {[1-(3-fluoro-8-methoxyquinolin-4-yl)piperidin-4-yl]methyl}(imino)methyl-λ^6-sulfanone]",–
–,19 nM,"COc1cccc2c(N3CC=C(CS(C)(=N)=O)CC3)ncnc12 (stereo not shown) [Compound 246, imino({[1-(8-methoxyquinazolin-4-yl)-1,2,3,6-tetrahydropyridin-4-yl]methyl})methyl-λ^6-sulfanone]",–
–,> 500 nM,"COc1ccc2c(-n3cc4c(n3)CCN(S(C)(=N)=O)C4)ccnc2c1 (stereo not shown) [Compound 233, imino[2-(7-methoxyquinolin-4-yl)-2H,4H,5H,6H,7H-pyrazolo[4,3-c]pyridin-5-yl]methyl-λ^6-sulfanone]",–
